Test results reported in patent US20230416199A1, “INHIBITORS OF AMINO ACID TRANSPORT” (ICAHN SCHOOL OF MEDICINE AT MOUNT SINAI, priority 2020, published 2023).

What was measured:
EAAC1 = target: T1, EAAC1 (UniProt P51907); experiment: Electrophysiology specificity experiment in transfected HEK293 cells, EAAC1; type: cell-based; conditions: apparent Ki, HEK293, internal solution 10 mM glutamate, mean ± SD
T1 construct: Ki EAAC1; other: apparent Ki, HEK293, internal solution 10 mM glutamate, mean ± SD
T1 sequence (P51907 1-523): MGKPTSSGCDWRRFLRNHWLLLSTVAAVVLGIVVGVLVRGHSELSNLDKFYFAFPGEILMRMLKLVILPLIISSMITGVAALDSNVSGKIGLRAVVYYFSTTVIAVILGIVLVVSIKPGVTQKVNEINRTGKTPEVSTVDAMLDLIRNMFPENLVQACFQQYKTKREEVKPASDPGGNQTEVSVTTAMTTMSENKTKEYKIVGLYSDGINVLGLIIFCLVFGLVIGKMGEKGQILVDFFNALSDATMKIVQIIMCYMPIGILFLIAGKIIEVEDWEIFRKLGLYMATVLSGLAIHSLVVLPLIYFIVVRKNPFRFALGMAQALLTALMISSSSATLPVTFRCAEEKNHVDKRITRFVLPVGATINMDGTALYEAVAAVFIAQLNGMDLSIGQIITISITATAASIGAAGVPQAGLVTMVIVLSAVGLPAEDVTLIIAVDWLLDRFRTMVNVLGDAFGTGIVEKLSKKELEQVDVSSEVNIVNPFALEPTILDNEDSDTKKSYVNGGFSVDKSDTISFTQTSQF
Procedure: Cells were maintained at 37° C. in a fully humidified atmosphere containing 5% CO2. rASCT2, hASCT2, hASCT1, EAAT1, EAAT2, EAAC1, EAAT5 and YFP complementary DNAs were each used to transiently transfect HEK293 using POLYPLUS Jet-prime transfection reagent. Cells were analyzed using electrophysiological techniques 24-40 hours after transfection.
(§1) Stock solutions of inhibitor was prepared in dimethyl sulfoxide (DMSO) up to 100 mM. Dilutions to working concentrations were made using external buffer. […] For rASCT2, hASCT2 and hASCT1, external buffer contained 140 mM NaCl, 2 mM MgCl2, 2 mM CaCl2), and 10 mM HEPES, pH 7.40 while internal pipette solution comprised of 130 mM NaSCN, 2 mM MgCl2, 10 mM EGTA, 10 mM HEPES and 10 mM alanine, pH 7.40. For specificity experiments with EAAT1, EAAT2, EAAC1 and EAAT5, internal solution contained 10 mM glutamate instead of alanine. Compounds were applied to HEK293 cells expressing DNA of interest suspended from a current recording electrode in whole cell configuration through a rapid solution exchange device. Cells are immersed in external buffer bath used to dissolve the inhibitors. The open pipette resistance was between 3 and 6 MΩ. Series resistance was not compensated in these experiments due to relatively small currents. Currents traces were recorded using an Adams and List EPC7 amplifier and digitized using a Molecular Devices Digidata A/D converter.
Linear and nonlinear curve fitting of the experimental data were analyzed using MicroCal Origin software. Nonlinear dose-response relationships were fitted with a Michaelis-Menten-like equation to obtain apparent Ki values in the absence of substrate (see TABLE 2 for Ki values). […] At least four experiments were performed with at least three different cells. Error bars in all graphs, e.g., in FIG. 1B and FIG. 1C and tables (Ki values) represent mean±SD.

EAAT1 = target: T2, EAAT1 (Homo sapiens, UniProt P43003); experiment: Electrophysiology specificity experiment in transfected HEK293 cells, EAAT1; type: cell-based; conditions: apparent Ki, HEK293, internal solution 10 mM glutamate, mean ± SD
T2 construct: expressed in transfected cells; host or cells: HEK293 (ATCC CRL-11268), transient transfection
T2 sequence (P43003 whole entry, species assumed): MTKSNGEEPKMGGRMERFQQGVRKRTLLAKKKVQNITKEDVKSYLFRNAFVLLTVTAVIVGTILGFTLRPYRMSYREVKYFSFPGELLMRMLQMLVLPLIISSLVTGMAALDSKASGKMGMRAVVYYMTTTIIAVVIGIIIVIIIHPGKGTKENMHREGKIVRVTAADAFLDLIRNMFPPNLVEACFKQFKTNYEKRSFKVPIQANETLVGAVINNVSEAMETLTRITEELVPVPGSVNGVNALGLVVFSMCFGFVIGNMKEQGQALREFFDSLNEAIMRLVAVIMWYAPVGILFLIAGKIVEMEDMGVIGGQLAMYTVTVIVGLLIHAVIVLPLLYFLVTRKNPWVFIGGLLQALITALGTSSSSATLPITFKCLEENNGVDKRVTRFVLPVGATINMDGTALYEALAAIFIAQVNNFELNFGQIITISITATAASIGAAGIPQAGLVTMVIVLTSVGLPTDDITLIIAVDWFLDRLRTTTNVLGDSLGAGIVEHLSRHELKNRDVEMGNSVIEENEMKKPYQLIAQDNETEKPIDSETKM
Procedure: Human embryonic kidney 293 (HEK293, ATCC CRL-11268) cells were cultured in DMEM media supplemented with 10% (v v) fetal bovine serum (FBS), 2 mM glutamine, 1% penicillin streptomycin solution, 1 mM sodium pyruvate and non-essential amino acids. Cells were maintained at 37° C. in a fully humidified atmosphere containing 5% CO2. rASCT2, hASCT2, hASCT1, EAAT1, EAAT2, EAAC1, EAAT5 and YFP complementary DNAs were each used to transiently transfect HEK293 using POLYPLUS Jet-prime transfection reagent. Cells were analyzed using electrophysiological techniques 24-40 hours after transfection.
as §1
Linear and nonlinear curve fitting of the experimental data were analyzed using MicroCal Origin software. Nonlinear dose-response relationships were fitted with a Michaelis-Menten-like equation to obtain apparent Ki values in the absence of substrate (see TABLE 2 for Ki values). The figures show representative current traces and dose-response curves for hACST2 and rASCT2, used to obtain Ki values in TABLE 2 for compound SN 40. At least four experiments were performed with at least three different cells. Error bars in all graphs, e.g., in FIG. 1B and FIG. 1C and tables (Ki values) represent mean±SD.

Row | Ki (EAAC1) [nM] | Ki (EAAT1) [nM] | Structure (SMILES)
1 | 1250 ± 200 | 1000 ± 300 | O=C(O[C@@H]1CN[C@H](C(=O)O)C1)c1ccc(-c2ccc(C(F)(F)F)cc2)cc1 [SN 09]
2 | 12300 ± 1900 | 9570 ± 1600 | N[C@@H](COC(=O)c1ccc(NC(=O)c2ccccc2)cc1)C(=O)O [SN 25]
3 | 14200 ± 700 | 10200 ± 2500 | O=C(O[C@@H]1CN[C@H](C(=O)O)C1)c1ccc(-c2ccccc2)nc1 [SN 19]
4 | 1270 ± 200 | 930 ± 100 | O=C(O)[C@@H]1C[C@H](OCc2ccc(-c3ccccc3)cc2)CN1 [SN 39]
5 | 1990 ± 400 | 1000 ± 100 | Cc1ccccc1-c1ccc(C(=O)O[C@@H]2CN[C@H](C(=O)O)C2)cc1 [SN 10]
6 | 950 ± 200 | 4750 ± 300 | Cc1ccccc1-c1ccc(C(=O)O[C@@H]2CN[C@H](C(=O)O)C2)cc1C [SN 11]
7 | 7230 ± 1400 | 3700 ± 200 | O=C(O[C@@H]1CN[C@H](C(=O)O)C1)c1ccc(-c2ccccc2)cc1 [SN 05]
8 | 690 ± 100 | 400 ± 100 | O=C(O[C@@H]1CN[C@H](C(=O)O)C1)c1ccc(-c2ccc(F)cc2)cc1 [SN 08]
